Data published in US8501911B2, “Methods of reducing inflammation and mucus hypersecretion” (Biomarck Pharmaceuticals, Ltd, priority 1999, dated 2013).
Several values for one entry are separate records, joined by “and”; a condition that tells them apart may be missing. Equal entries are not always repeated. Residues, ends and D or L forms follow the SMILES beside them. *: point of attachment. Myristoyl = CCCCCCCCCCCCCC(=O)*

Key:
NHBE cells = assay: Mucin secretion from NHBE cells exposed to kinase activators/reagents alone (ELISA); type: cell-based, human; settings: for Mucin secretion as percent of control: 15 min
Procedure: To determine the potential role of PKC and/or PKG in the mucin secretory process, NHBE cells were exposed to the following two specific protein kinase activators: the phorbol ester, phorbol 12-myristate 13-acetate (PMA), for activation of PKC, and the nonhydrolyzable cGMP analogue, 8-Br-cGMP, for activation of PKG.
NHBE Cell Culture—Expansion, cryopreservation, and culture of NHBE cells in the air/liquid interface were performed as described previously. See, Krunkosky et al. Briefly, NHBE cells (Clonetics, San Diego, Calif.) were seeded in vented T75 tissue culture flasks (500 cells/cm^2) and cultured until cells reached 75-80% confluence. Cells were then dissociated by trypsin/EDTA and frozen as passage-2. Air/liquid interface culture was initiated by seeding passage-2 cells (2×10^4 cells/cm^2) in […]® clear culture inserts (Costar, Cambridge, Mass.) that were thinly coated with rat tail collagen, type 1 (Collaborative Biomedical, Bedford, Mass.). Cells were cultured submerged in medium in a humidified 95% air, 5% CO2 environment for 5-7 days until nearly confluent. At that time, the air/liquid interface was created by removing the apical medium and feeding cells basalaterally. Medium was renewed daily thereafter. Cells were cultured for an additional 14 days to allow for full differentiation.
Measurement of Mucin Secretion by ELISA—Before collection of “base line” and “test” mucin samples, the accumulated mucus at the apical surface of the cells was removed by washing with phosphate-buffered saline, pH 7.2. To collect the base-line secretion, cells were incubated with medium alone, and secreted mucin in the apical medium was collected and reserved. Cells were rested for 24 h and then exposed to medium containing the selected stimulatory and/or inhibitory reagents (or appropriate controls), after which secreted mucin was collected and reserved as the test sample. Incubation times for the base line and the test were the same but varied depending on the test reagent utilized. Both base line and test secretions were analyzed by ELISA using an antibody capture method as known in the art. See, e.g., Harlow et al., Antibodies: A Laboratory Manual, pp. 570-573, Cold Spring Harbor Laboratory, Cold Spring Harbor, N.Y. (1988). The primary antibody for this assay was 17Q2 (Babco, Richmond, Calif.), a monoclonal antibody that reacts specifically with a carbohydrate epitope on human airway mucins. […] Wright et al., Am. J. Physiol. 271, L854-L861 (1996). Levels of mucin secretion were reported as percentage of the medium control.
Mucus secreted from the airway epithelial cells in vitro after stimulation by activators was assessed using an ELISA (antibody capture method) (E. Harlow, D. Lane. “Antibodies: A Laboratory Manual.” New York: Cold Spring Harbor Laboratory Press, 1988), wherein the collected mucus is bound directly to the ELISA plate. Mucus was detected using an antibody raised against monkey airway mucus (Lin et al. Am J Respir Cell Mol Biol 1:41, 1989).

[1] = tested on: MARCKS-related mucus secretion; assay: Inhibition of MARCKS-related mucus (mucin) secretion, Table 1; type: cell-based; settings: at 100 μM of test peptide
HL-60 clone 15 cells = assay: Inhibition of eosinophil peroxidase (EPO) release from HL-60 clone 15 cells; type: cell-based, human; settings: at 50 μM of test peptide; 100 nM PMA 2 hours
Description: The human promyelocytic cell line (Fischkoff S A, Graded increase in probability of eosinophilic differentiation of HL-60 promyelocytic leukemia cells induced by culture under alkaline conditions. Leuk. Res., 12:679-686, 1988; Rosenberg H F, Ackerman S J, Tenen D G. Human eosinophil cationic protein: molecular cloning of a cytotoxin and helminthotoxin with ribonuclease activity. J. Exp. Med., 170:163-176, 1989), HL-60 clone 15, is eosinophil-like promyelocytic human cell line which was purchased from American Type Culture Collection (ATCC) Rockville, Md. (catalog #CRL-1964). The cells were maintained in medium consisting of RPMI 1640 with glutamine supplemented with 10% heat inactivated fetal bovine serum (Gibco, Carlsbad, Calif.), 50 IU/mL penicillin, 50 μg/mL streptomycin, and 25 mM HEPES buffer, pH 7.8 at 37° C. in an atmosphere containing 5% CO2. Final differentiation of an eosinophil-like phenotype was initiated by culturing the cells at 5×10^5 cells/mL in the above medium containing 0.5 mM butyric acid (Sigma-Aldrich) for 5 days as previously described by Tiffany H L, Li F, and Rosenberg H F, Hyperglycosylation of eosinophil ribonuclease in a promyelocytic leukemia cell line and in differentiated peripheral blood progenitor cells J. Leukoc. Biol. 58: 49-54, 1995; and by Tiffany H L, Alkhatib G, Combadiere C, Berger E A, and Murphy P M., CC Chemokine receptors are differentially regulated by IL-5 during maturation of eosinophilic HL-60 cells. J. Immunol. 160:1385-1392, 1998. The cells were washed and resuspended at 2.5×10^6 per mL in phenol free RPMI-1640 (Cellgro; Mediatech Inc.). Aliquots of cells in 15 mL plastic tubes were preincubated with indicated concentration of test peptide (dissolved in PBS, pH 7.0) for 10 minutes followed by treatment of the cells with 100 nM PMA for 2 hours. The reaction was terminated by placing the tubes on ice and centrifugation of cells at 400 g for 5 min at 4° C. The eosinophil peroxidase (EPO) activity released by HL-60 clone 15 cells was assayed using TMB according to a previously established technique Paige et al (see above) and by Lacy P, Mahmudi-Azer S, Bablitz B, Hagen S C, Velazquez J R, Man S F, Moqbel R. Rapid mobilization of intracellularly stored RANTES in response to interferon-gamma in human eosinophils. Blood 94:23-32, 1999. Briefly, add 50 μL aliquots of the supernatant to 96-well microtiter plate followed by addition of 100 μL of the tetramethylbenzidine (TMB) substrate solution and incubate at room temperature for 15 minutes. The reaction was terminated by addition of 50 μL of 1.0 M sulfuric acid and absorbance was read at 450 nm in a spectrophotometric microplate reader (Molecular Devices, Sunnyvale, Calif.). The amount of secreted EPO was expressed as percentage of total content using the amount obtained in the same number of triton X-100-lysed cells.
Because standard EPO from HL-60 clone 15 cells was not available to use for quantification, we measured both released and intracellular (from lysed cells) levels of EPO, and expressed the released EPO as a percentage of total (intracellular and released) for each. To measure intracellular EPO in HL-60 clone 15 cells, appropriate aliquots of 0.1% triton X-100-lysed cells were taken for quantification of intracellular EPO as described above. All data are expressed as percentage of control to minimize variability between cultures.

[2] = Solubility in 0.5 N saline; type: physicochemical; settings: in 0.5 N Saline at pH 6.5

| Compound | % Inhibition Mucin [1] [%] | % Inhibition EPO (HL-60 clone 15 cells) [%] | solubility [2] [µg/mL] | other results |
| --- | --- | --- | --- | --- |
| Nc1nc2c(nc(Br)n2[C@@H]2O[C@@H]3COP(=O)(O)O[C@H]3[C@H]2O)c(=O)[nH]1 [8-Br-cGMP] | – | – | – | Mucin secretion as percent of control (NHBE cells; reagent 1 μM alone): 109% |
| CCCCCCCCCCCCCC(=O)NCC(=O)N[C@@H](C)C(=O)N[C@@H](CCC(N)=O)C(=O)N[C@@H](Cc1ccccc1)C(=O)N[C@@H](CO)C(=O)N[C@@H](CCCCN)C(=O)N[C@H](C(=O)N[C@@H](C)C(=O)N[C@@H](C)C(=O)N[C@@H](CCCCN)C(=O)NCC(=O)N[C@@H](CCC(=O)O)C(=O)N[C@@H](C)C(=O)N[C@@H](C)C(=O)N[C@@H](C)C(=O)N[C@@H](CCC(=O)O)C(=O)N[C@@H](CCCNC(=N)N)C(=O)N1CCC[C@H]1C(=O)NCC(=O)N[C@@H](CCC(=O)O)C(=O)N[C@@H](C)C(=O)N[C@@H](C)C(=O)N[C@H](C(=O)N[C@@H](C)C(=O)O)C(C)C)[C@@H](C)O [MANS peptide] (Myristoyl-GAQFSKTAAKGEAAAERPGEAAVA-OH; C-terminus assumed) | 81.5 | 46.1 | < 5000 | – |
| CCCCCCCCCCCCCC(=O)O[C@@H]1[C@@H](C)[C@@]2(O)[C@@H](C=C(CO)C[C@]3(O)C(=O)C(C)=C[C@@H]23)[C@@H]2C(C)(C)[C@]12OC(C)=O [PMA, phorbol 12-myristate 13-acetate] | – | – | – | Mucin secretion as percent of control (NHBE cells; reagent 100 nM alone): 123% and 122%; Mucin secretion in response to PMA alone (NHBE cells; various concentrations and times, up to 1 μM for 2 h): did not induce significant mucin secretion |
| CCCCCCCCCCCCCC(=O)NCC(=O)N[C@H](C(=O)N[C@@H](C)C(=O)N1CCC[C@H]1C(=O)N[C@@H](C)C(=O)N[C@@H](C)C(=O)N[C@@H](CCC(=O)O)C(=O)NCC(=O)N[C@@H](C)C(=O)NCC(=O)N[C@@H](C)C(=O)N[C@@H](CCC(=O)O)C(=O)N[C@H](C(=O)N[C@@H](CCCCN)C(=O)N[C@@H](CCCNC(=N)N)C(=O)N[C@@H](C)C(=O)N[C@@H](CO)C(=O)N[C@@H](C)C(=O)N[C@@H](CCC(=O)O)C(=O)N[C@@H](C)C(=O)N[C@@H](CCCCN)C(=O)N[C@@H](CCC(N)=O)C(=O)N[C@@H](C)C(=O)N[C@@H](Cc1ccccc1)C(=O)O)C(C)C)[C@@H](C)O [RNS peptide, reference compound] (Myristoyl-GTAPAAEGAGAEVKRASAEAKQAF-OH; C-terminus assumed) | 0 | 0 | > 15000 | – |
| CCCCCCCCCCCCCC(=O)NCC(=O)N[C@@H](C)C(=O)N[C@@H](CCC(N)=O)C(=O)N[C@@H](Cc1ccccc1)C(=O)N[C@@H](CO)C(=O)N[C@@H](CCCCN)C(=O)N[C@H](C(=O)N[C@@H](C)C(=O)N[C@@H](C)C(=O)N[C@@H](CCCCN)C(=O)NCC(=O)N[C@@H](CCC(=O)O)C(=O)O)[C@@H](C)O [SEQ ID NO: 13, N-myristoyl-GAQFSKTAAKGE] (Myristoyl-GAQFSKTAAKGE-OH; C-terminus assumed) | 77 | 25.2 | > 2000 | – |
| CCCCCCCCCCCCCC(=O)NCC(=O)N[C@@H](C)C(=O)N[C@@H](CCC(N)=O)C(=O)N[C@@H](Cc1ccccc1)C(=O)N[C@@H](CO)C(=O)N[C@@H](CCCCN)C(=O)N[C@H](C(=O)N[C@@H](C)C(=O)N[C@@H](C)C(=O)N[C@@H](CCCCN)C(=O)O)[C@@H](C)O [SEQ ID NO: 15, N-myristoyl-GAQFSKTAAK] (Myristoyl-GAQFSKTAAK-OH; C-terminus assumed) | 67.5 | 37.4 | > 10000 | – |
| TNF-α | – | – | – | Mucin secretion level, % of control (NHBE cells; TNF-α 10 ng/ml 4 h, no secretagogue): 109% |
